Literature values in patent US12594236B2, “Method of treating acute exacerbation of schizophrenia with long-acting injectable depot composition” (LABORATORIOS FARMACEUTICOS ROVI, S.A., priority 2021, dated 2026).
Read-outs that look alike come from different tables or passages of the source.

System: acute schizophrenia

| Compound | placebo-adjusted reduction of the PANSS total score (441 mg, 12 weeks, oral aripiprazole 3 weeks after randomization) | placebo-adjusted reduction of the PANSS total score (882 mg, 12 weeks, oral aripiprazole 3 weeks after randomization) | placebo-adjusted reduction of the PANSS total score (25 mg eq, 13 weeks) | placebo-adjusted reduction of the PANSS total score (100 mg eq, 13 weeks) | placebo-adjusted reduction of the PANSS total score (150 mg eq, 13 weeks) |
| --- | --- | --- | --- | --- | --- |
| CCCCCCCCCCCC(=O)OCN1C(=O)CCc2ccc(OCCCCN3CCN(c4cccc(Cl)c4Cl)CC3)cc21 [Aripiprazole Lauroxil] | −10.9 | −11.9 |  |  |  |
| CCCCCCCCCCCCCCCC(=O)OC1CCCn2c1nc(C)c(CCN1CCC(c3noc4cc(F)ccc34)CC1)c2=O (centres unmarked) [Paliperidone Palmitate] |  |  | −5.1 | −8.7 | −9.8 |
